Assay: excess molar enthalpy (molar enthalpy of mixing); xn = mol fraction of the nth substance listed
Conditions: 298.15 K, 100 kPa

CC(C)CC(=O)O + CC#N
Conditions	excess molar enthalpy [kcal/mol]
x2 = 0.0895	0.0454
x2 = 0.1287	0.0645
x2 = 0.1972	0.0978
x2 = 0.3371	0.151
x2 = 0.4026	0.175
x2 = 0.52	0.205
x2 = 0.5902	0.21
x2 = 0.6283	0.207
x2 = 0.7177	0.189
x2 = 0.7835	0.161
x2 = 0.8207	0.136
x2 = 0.8529	0.12
x2 = 0.8744	0.104
x2 = 0.9379	0.0492

CC(=O)O + CC#N
Conditions	excess molar enthalpy [kcal/mol]
x2 = 0.0927	0.023
x2 = 0.1409	0.0359
x2 = 0.2787	0.0588
x2 = 0.381	0.0696
x2 = 0.571	0.0679
x2 = 0.7416	0.0474
x2 = 0.809	0.0379
x2 = 0.8722	0.0268
x2 = 0.915	0.019

CC(C)C(=O)O + CC#N
Conditions	excess molar enthalpy [kcal/mol]
x2 = 0.187	0.116
x2 = 0.2347	0.141
x2 = 0.2938	0.172
x2 = 0.3508	0.192
x2 = 0.3982	0.206
x2 = 0.4547	0.22
x2 = 0.5013	0.222
x2 = 0.5479	0.221
x2 = 0.6046	0.214
x2 = 0.6531	0.201
x2 = 0.6827	0.189
x2 = 0.7273	0.172
x2 = 0.8013	0.138
x2 = 0.9158	0.0654

CCCC(=O)O + CC#N
Conditions	excess molar enthalpy [kcal/mol]
x2 = 0.089	0.0382
x2 = 0.1448	0.0632
x2 = 0.1884	0.0809
x2 = 0.2668	0.108
x2 = 0.4626	0.15
x2 = 0.523	0.155
x2 = 0.5889	0.152
x2 = 0.6417	0.147
x2 = 0.6605	0.143
x2 = 0.686	0.138
x2 = 0.7141	0.131
x2 = 0.7884	0.105
x2 = 0.8201	0.0917
x2 = 0.8728	0.0713
x2 = 0.9067	0.0519
x2 = 0.9377	0.031

CCCCC(=O)O + CC#N
Conditions	excess molar enthalpy [kcal/mol]
x2 = 0.1197	0.0643
x2 = 0.1899	0.1
x2 = 0.2311	0.12
x2 = 0.2782	0.139
x2 = 0.4131	0.183
x2 = 0.4825	0.199
x2 = 0.5404	0.205
x2 = 0.6211	0.202
x2 = 0.637	0.2
x2 = 0.6655	0.195
x2 = 0.7138	0.182
x2 = 0.7441	0.173
x2 = 0.8076	0.14
x2 = 0.8487	0.115
x2 = 0.9029	0.0725
x2 = 0.9603	0.0285

CCC(=O)O + CC#N
Conditions	excess molar enthalpy [kcal/mol]
x2 = 0.156	0.0696
x2 = 0.2134	0.0896
x2 = 0.278	0.11
x2 = 0.3407	0.127
x2 = 0.399	0.139
x2 = 0.4626	0.148
x2 = 0.5057	0.151
x2 = 0.5993	0.145
x2 = 0.6517	0.136
x2 = 0.7248	0.118
x2 = 0.8046	0.0932

Source: a compilation of properties of binary mixtures (doi:10.1021/je990207b)
